2 compounds from patent US10501518B2 (priority 2013, dated 2019) can be followed below.

For orientation: EC50 means the concentration at which the effect is half-maximal.

One data set deals with T1, PTHR (Homo sapiens, UniProt Q03431).
T1 construct: expressed in transfected cells
T1 sequence (Q03431 27-593): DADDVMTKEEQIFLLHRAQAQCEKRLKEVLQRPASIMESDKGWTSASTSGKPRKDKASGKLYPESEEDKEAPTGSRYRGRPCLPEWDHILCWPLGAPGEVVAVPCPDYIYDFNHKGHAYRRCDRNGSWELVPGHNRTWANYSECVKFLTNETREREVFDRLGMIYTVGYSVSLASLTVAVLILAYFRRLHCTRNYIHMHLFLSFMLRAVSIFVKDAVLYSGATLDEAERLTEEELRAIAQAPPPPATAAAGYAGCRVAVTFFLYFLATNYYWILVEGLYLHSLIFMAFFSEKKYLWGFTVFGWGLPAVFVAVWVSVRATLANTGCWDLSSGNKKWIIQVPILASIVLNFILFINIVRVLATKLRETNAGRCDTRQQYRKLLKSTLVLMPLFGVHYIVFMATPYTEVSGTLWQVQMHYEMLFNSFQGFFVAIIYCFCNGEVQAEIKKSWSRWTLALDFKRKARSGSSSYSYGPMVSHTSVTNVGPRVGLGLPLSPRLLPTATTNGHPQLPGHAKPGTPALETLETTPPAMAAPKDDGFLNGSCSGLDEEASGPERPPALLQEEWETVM
The data set can be described thus: cAMP induction potency, N-terminal modifications and cyclic constraints (Tables 9, 10, 13). It counts as cell-based. The note with it: Table 9.

Another data set concerns the target T2, trypsin (Bos taurus, UniProt P00760).
T2 construct: purchased Sigma Aldrich (St. Louis, Mo.); host or cells: bovine pancreas
T2 sequence (P00760 24-246): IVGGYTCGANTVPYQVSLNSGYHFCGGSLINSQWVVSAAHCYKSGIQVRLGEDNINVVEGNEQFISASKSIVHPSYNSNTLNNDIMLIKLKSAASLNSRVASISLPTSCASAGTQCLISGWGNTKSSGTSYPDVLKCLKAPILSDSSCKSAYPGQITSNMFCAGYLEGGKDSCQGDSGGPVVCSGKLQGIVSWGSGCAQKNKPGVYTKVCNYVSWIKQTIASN
Briefly: Protease stability (trypsin, HPLC assay). The format is in vitro ADME, bovine. Particulars: 40 μM peptide, 5 μg/mL trypsin, TBS, room temperature. The method, then: Locations of β^3 residues in B5 and D6 are indicated by highlighted residues. Solutions of 40 μM peptide in TBS were incubated at room temperature with 5 μg/mL trypsin. Vertical lines indicate observation by MALDI-MS of one or both products consistent with hydrolysis of the backbone amide bond between the noted residues. […] Each data point represents the average of measurements from duplicate experiments, with error bars corresponding to the standard deviation.
An HPLC assay was used to assess proteolytic stability.^30, 32 Peptide concentration was determined by UV-Vis spectroscopy (calculated from the UV-vis absorption at 280 nm, ε280 nm=5,690 M^−1 cm^−1 for all peptides except D6 and D7, ε280 nm=11,380 M^−1 cm^−1 based on an extinction coefficient for the tryptophan sidechain chromophore of 5,690 M^−1 cm^−1).^33 Peptide stock solutions were prepared in degassed water to a concentration of 200 μM. […] A portion (75 μL) of the quenched reaction mixture was injected onto an analytical RP-HPLC (see peptide synthesis and purification section above), and peaks were analyzed. The time course of peptide degradation was experimentally determined by integrating the area of the peak corresponding to the non-hydrolyzed peptide in a series of HPLC traces, with duplicate proteolysis reactions being used to generate error bars corresponding to the standard deviation. […]

Method for PTHR: For cAMP dose-response assays, monolayers of confluent HEK 293 cells were pre-incubated with buffer containing d-luciferin (0.5 mM) in 96 well plates at room temperature until a stable baseline level of luminescence was established (30 min). Varying concentrations of agonist were then added, and the time course of luminescence response was recorded using a Perkin Elmer plate reader following α/β-peptide addition.

`CC[C@H](C)[C@H](NC(=O)[C@H](CCC(=O)O)NC(=O)[C@H](CO)NC(=O)[C@@H](NC(=O)[C@@H](N)CO)C(C)C)C(=O)N[C@@H](CCC(N)=O)C(=O)N[C@@H](CC(C)C)C(=O)N[C@@H](CCSC)C(=O)N[C@@H](Cc1cnc[nH]1)C(=O)N[C@@H](CC(N)=O)C(=O)N[C@@H](CC(C)C)C(=O)NCC(=O)N[C@@H](CCCCN)C(=O)N[C@H](CC(=O)N[C@@H](CC(C)C)C(=O)N[C@@H](CC(N)=O)C(=O)N[C@@H](CO)C(=O)N[C@@H](CCSC)CC(=O)N[C@@H](CCC(=O)O)C(=O)N[C@@H](CCCNC(=N)N)C(=O)N[C@H](C(=O)N[C@@H](CCC(=O)O)CC(=O)N[C@@H](Cc1c[nH]c2ccccc12)C(=O)N[C@@H](CC(C)C)C(=O)N[C@@H](CCCNC(=N)N)C(=O)N[C@@H](CCCCN)CC(=O)N[C@@H](CCCCN)C(=O)N[C@@H](CC(C)C)C(=O)N[C@@H](CCC(N)=O)C(=O)N[C@@H](CC(=O)O)CC(=O)N[C@H](C(=O)N[C@@H](Cc1cnc[nH]1)C(=O)N[C@@H](CC(N)=O)C(=O)N[C@H](CC(N)=O)Cc1ccccc1)C(C)C)C(C)C)Cc1c[nH]c2ccccc12` [D6]: the “Fold PTH” value on PTHR was 2.1. In addition, the EC50 on PTHR (read-out: EC50, nM (cAMP induction potency)) stood at 0.17 ± 0.05 nM. Further, the proteolysis by trypsin entry on trypsin is listed as “poorer substrate than is the α-peptide”.
In the case of `CC[C@H](C)[C@H](NC(=O)[C@H](CCC(=O)O)NC(=O)[C@H](CO)NC(=O)[C@@H](NC(=O)[C@@H](N)CO)C(C)C)C(=O)N[C@@H](CCC(N)=O)C(=O)N[C@@H](CC(C)C)C(=O)N[C@@H](CCSC)C(=O)N[C@@H](Cc1cnc[nH]1)C(=O)N[C@@H](CC(N)=O)C(=O)N[C@@H](CC(C)C)C(=O)NCC(=O)N[C@@H](CCCCN)C(=O)N[C@@H](Cc1cnc[nH]1)C(=O)N[C@@H](CC(C)C)C(=O)N[C@@H](CC(N)=O)C(=O)N[C@@H](CO)C(=O)N[C@@H](CCSC)C(=O)N[C@@H](CCC(=O)O)C(=O)N[C@@H](CCCN=C(N)N)C(=O)N[C@H](C(=O)N[C@@H](CCC(=O)O)C(=O)N[C@@H](Cc1c[nH]c2ccccc12)C(=O)N[C@@H](CC(C)C)C(=O)N[C@@H](CCCN=C(N)N)C(=O)N[C@@H](CCCCN)C(=O)N[C@@H](CCCCN)C(=O)N[C@@H](CC(C)C)C(=O)N[C@@H](CCC(N)=O)C(=O)N[C@@H](CC(=O)O)C(=O)N[C@H](C(=O)N[C@@H](Cc1cnc[nH]1)C(=O)N[C@@H](CC(N)=O)C(=O)N[C@@H](Cc1ccccc1)C(=O)O)C(C)C)C(C)C` [PTH(1-34), reference compound], the proteolysis by trypsin result on trypsin is on record as “Proteolysis was observed at all predicted trypsin cut sites”.
